Test results: ChEMBL document CHEMBL4619717, “Novel quinolin-4(1H)-one derivatives as multi-effective aldose reductase inhibitors for treatment of diabetic complications: Synthesis, biological evaluation, and molecular modeling studies” (Bioorg Med Chem Lett, 2020)

Experiments:
[1] = Antioxidant activity assessed as DPPH radical scavenging activity at 50 uM relative to control; format: functional
[2] = molecular target: T1, AKR1A1 (aldo-keto reductase family 1 member A1) (Rattus norvegicus, UniProt P51635); assay: Inhibition of AKR1A1 in rat kidney at 10 uM relative to control
T1 sequence (P51635 whole entry): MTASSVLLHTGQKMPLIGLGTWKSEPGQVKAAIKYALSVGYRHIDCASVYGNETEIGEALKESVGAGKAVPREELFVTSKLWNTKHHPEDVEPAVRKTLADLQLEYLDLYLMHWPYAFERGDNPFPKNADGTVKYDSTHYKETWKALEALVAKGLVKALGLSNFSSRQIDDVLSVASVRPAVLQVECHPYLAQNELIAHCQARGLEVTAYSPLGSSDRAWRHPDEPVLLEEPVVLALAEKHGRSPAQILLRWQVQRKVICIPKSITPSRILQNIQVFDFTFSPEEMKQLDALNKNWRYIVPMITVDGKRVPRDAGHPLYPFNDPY

[3] = molecular target: Aldo-keto reductase family 1 member B1 (Rattus norvegicus, UniProt P07943); assay: Inhibition of AKR1B1 in rat lenses
[4] = Antioxidant activity assessed as DPPH radical scavenging activity at 100 uM relative to control; format: functional
[5] = Antioxidant activity assessed as DPPH radical scavenging activity at 10 uM relative to control; format: functional
[6] = n-octanol/aqueous buffer distribution coefficient, logD of compound at pH 7.4 by shake flask assay based HPLC-MS analysis; format: physicochemical

| SMILES | inhibition at 10 µM [2] [%] | IC50 [3] [nM] | logD [6] | Activity [1] [%] | Activity [4] [%] | Activity [5] [%] |
| --- | --- | --- | --- | --- | --- | --- |
| O=C(O)c1cn(Cc2cc(O)cc(O)c2)c2ccccc2c1=O | 36.6 | 57 | 0.57 | 71.1 | 92.4 | 51.7 |
| O=C(NO)c1cn(Cc2ccc(F)cc2)c2ccccc2c1=O | 24.1 | 237 | – | – | 32.1 | – |
| CS(=O)(=O)NC(=O)c1cn(Cc2cc(O)cc(O)c2)c2ccccc2c1=O | 24.7 | 112 | – | 64.7 | 79.4 | 33.6 |
| O=C(NO)c1cn(Cc2ccc(Cl)cc2)c2ccccc2c1=O | 26.5 | 626 | – | – | 31.7 | – |
| CONC(=O)c1cn(Cc2ccccc2)c2ccccc2c1=O | 5.1 | 12800 | 1.19 | – | 25.2 | – |
| CS(=O)(=O)NC(=O)c1cn(Cc2ccccc2)c2ccccc2c1=O | 7.9 | 15000 | 0.53 | – | 28.7 | – |
| COc1ccc(Cn2cc(C(=O)O)c(=O)c3ccccc32)cc1OC | 24.8 | 10600 | – | – | 32.2 | – |
| Cc1c(C)c2c(c(C)c1O)CCC(C)(C(=O)O)O2 (stereo not drawn) | – | – | – | 84.1 | 94.2 | 77.2 |
| COc1ccc(Cn2cc(C(=O)NO)c(=O)c3ccccc32)cc1 | 7.6 | 12500 | – | – | 34.1 | – |
| O=C(NO)c1cn(Cc2ccc(O)c(O)c2)c2ccccc2c1=O | 25.4 | 287 | – | 65.1 | 88.1 | 51.1 |
| O=C(NO)c1cn(Cc2cc(O)cc(O)c2)c2ccccc2c1=O | 27.4 | 65 | 1.32 | 72.4 | 91 | 57.8 |
| COc1cc(Cn2cc(C(=O)NO)c(=O)c3ccccc32)cc(OC)c1 | 17.2 | 15600 | – | – | 41.3 | – |
| COc1ccc(Cn2cc(C(=O)NO)c(=O)c3ccccc32)cc1OC | 10.5 | 13600 | – | – | 39.1 | – |
| CC(/C=C1\SC(=S)N(CC(=O)O)C1=O)=C\c1ccccc1 | 43.1 | – | – | – | – | – |
| CONC(=O)c1cn(Cc2cc(O)cc(O)c2)c2ccccc2c1=O | 21.7 | 689 | 0.73 | 55.8 | 88.7 | 42.7 |
| COc1cc(Cn2cc(C(=O)O)c(=O)c3ccccc32)cc(OC)c1 | 30.1 | 9870 | – | – | 47.6 | – |
| O=C(NO)c1cn(Cc2ccccc2)c2ccccc2c1=O | 7.1 | 12600 | 1.53 | – | 27.1 | – |
| O=C(NO)c1cn(Cc2ccc(Br)cc2)c2ccccc2c1=O | 17.6 | 2490 | – | – | 27.6 | – |

Second part, led by results:

| inhibition at 10 µM [2] [%] | IC50 [3] [nM] | logD [6] | SMILES | Activity [1] [%] | Activity [4] [%] | Activity [5] [%] |
| --- | --- | --- | --- | --- | --- | --- |
| 5.8 | 11000 | 0.82 | O=C(O)c1cn(Cc2ccccc2)c2ccccc2c1=O | – | 20.3 | – |
| 34.6 | 107 | – | O=C(NO)c1cn(Cc2ccc(O)cc2)c2ccccc2c1=O | 51.1 | 74.9 | 32.3 |
| 37.5 | 98 | – | O=C(O)c1cn(Cc2ccc(O)cc2)c2ccccc2c1=O | 30.4 | 62.7 | 14.6 |
| 30.2 | 154 | – | O=C(O)c1cn(Cc2ccc(F)cc2)c2ccccc2c1=O | – | 21.4 | – |
| 38.6 | 251 | – | O=C(O)c1cn(Cc2ccc(O)c(O)c2)c2ccccc2c1=O | 61.9 | 87.1 | 44.9 |
| 18.3 | 321 | – | O=C(O)c1cn(Cc2ccc(Cl)cc2)c2ccccc2c1=O | – | 28.7 | – |
| – | 12000 | – | COc1ccc(Cn2cc(C(=O)O)c(=O)c3ccccc32)cc1 | – | 30.5 | – |
| 20.1 | 1530 | – | O=C(O)c1cn(Cc2ccc(Br)cc2)c2ccccc2c1=O | – | 25.4 | – |
